# Target: T1, human TREM2 (Homo sapiens, UniProt Q9NZC2)
# T1 construct: expressed in transfected cells; host or cells: HEK293T
# Test: TREM2 agonist potency by cellular Syk phosphorylation (AlphaLisa) in HEK293T-hTREM2 cells
# Assay type: cell-based
# Conditions: Table D-2; HEK293 cells expressing human TREM2 and DAP12; pSyk AlphaLisa
# Description: In vitro Measurement of Triggering Receptor Expressed on Myeloid Cells 2 activity using cellular phosphorylation of Spleen Tyrosine Kinase (“Syk”) Assays
# Measurement of TREM2 agonist potency was done using a HEK cell line expressing human TREM2 and DAP12 (HEK293T-hTREM2 cells). Binding of small molecules to, and activation of, TREM2 increases the phosphorylation of Syk. The resultant levels of Syk phosphorylation are measured using a commercial AlphaLisa reagent kit. To perform the assay, HEK-hTREM2 cells were plated at 14,000 cells per well in a 384 well plate, in 25 µL of complete growth media and incubated at 37° C., 5% CO2 for 20-24 hours.
# Prior to the assay, test compounds were diluted in the 384 well plates in assay buffer and allowed to equilibrate for 30 minutes. Growth media was removed from cell plates by inversion on blotting paper, and 25 μL of test articles in assay buffer was added to cells. Cells were incubated for 45 minutes at room temperature. After 45 minutes, assay buffer was removed and 10 μL of lysis buffer was added. Plates were shaken for 20 minutes at 350 RPM at room temperature. After complete lysis, AlphaLisa reagents were added to the lysate, and fluorescence intensity was measured using a Perkin Elmer Envision plate reader. Intensities were used to generate a standard curve, and % activation was calculated. Curve fitting was performed using Prism v9 software, log(agonist) vs response—variable slope (four parameters), and EC50s were calculated from the curve fit.
# The results presented in Table D have been generated with the in vitro assay described above. This assay may be used to test any of the compounds described herein to assess and characterize a compound's ability to act as an agonist of TREM2.
# T1 sequence (Q9NZC2 19-230): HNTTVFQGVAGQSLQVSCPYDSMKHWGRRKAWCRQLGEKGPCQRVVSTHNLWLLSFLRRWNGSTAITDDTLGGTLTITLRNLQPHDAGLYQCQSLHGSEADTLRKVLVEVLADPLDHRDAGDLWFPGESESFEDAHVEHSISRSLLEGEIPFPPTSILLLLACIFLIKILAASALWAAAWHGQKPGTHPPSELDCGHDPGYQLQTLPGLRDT
# T1 sequence (O43914 22-113 partner): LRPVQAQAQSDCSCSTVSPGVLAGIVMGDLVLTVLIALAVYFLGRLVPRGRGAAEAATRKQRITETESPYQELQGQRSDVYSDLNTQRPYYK
row,EC50,Compound
1,50 to 500 nM,"COCn1cc([C@H]2CN(c3nc(-c4ccc(C(F)(F)F)cc4F)c4sc(N(C)C)nc4n3)C[C@@H](C)O2)cn1 [Compound I-149, 7-[2-fluoro-4-(trifluoromethyl)phenyl]-5-[(2S,6R)-2-[1-(methoxymethyl)pyrazol-4-yl]-6-methyl-morpholin-4-yl]-N,N-dimethyl-thiazolo[4,5-d]pyrimidin-2-amine]"
2,500 to 3000 nM,"CCn1/c(=N\C)sc2c(-c3ccc(Cl)cc3F)nc(N3C[C@@H](C)O[C@@H](c4cnn(C5CC5)c4)C3)nc21 [Compound I-154, (E)-7-(4-chloro-2-fluoro-phenyl)-3-ethyl-N-methyl-5-[(2S,6R)-2-(1-cyclopropylpyrazol-4-yl)-6-methyl-morpholin-4-yl]thiazolo[4,5-d]pyrimidin-2-imine]"
3,500 to 3000 nM,"C/N=c1/sc2c(-c3ccc(Cl)cc3F)nc(N3C[C@@H](C)O[C@@H](c4cnn(C5CC5)c4)C3)nc2n1CCF [Compound I-159, (E)-7-(4-chloro-2-fluoro-phenyl)-3-(2-fluoroethyl)-N-methyl-5-[(2S,6R)-2-(1-cyclopropylpyrazol-4-yl)-6-methyl-morpholin-4-yl]thiazolo[4,5-d]pyrimidin-2-imine]"
4,50 to 500 nM,"CO[C@@H]1CCN(c2nc3nc([C@H]4CCO[C@@H](c5cnn(C6CC6)c5)C4)nc(-c4ccc(C(F)(F)F)cc4F)c3s2)C1 [Compound I-164, 5-((2R,4S)-2-(1-cyclopropyl-1H-pyrazol-4-yl)tetrahydro-2H-pyran-4-yl)-7-(2-fluoro-4-(trifluoromethyl)phenyl)-2-((R)-3-methoxypyrrolidin-1-yl)thiazolo[4,5-d]pyrimidine]"
5,50 to 500 nM,"CO[C@H]1CCN(c2nc3nc([C@H]4CCO[C@@H](c5cnn(C6CC6)c5)C4)nc(-c4ccc(C(F)(F)F)cc4F)c3s2)C1 [Compound I-165, 5-[(2R)-2-(1-cyclopropylpyrazol-4-yl)tetrahydropyran-4-yl]-7-[2-fluoro-4-(trifluoromethyl)phenyl]-2-[(3S)-3-methoxypyrrolidin-1-yl]thiazolo[4,5-d]pyrimidine]"
6,50 to 500 nM,"C[C@@H]1CN(c2nc(-c3ccc(F)cc3F)c3c(n2)nc(N2CCC2)n3C)C[C@H](c2cnn(C3CC3)c2)O1 [Compound I-191, (2S,6R)-4-(8-(azetidin-1-yl)-6-(2,4-difluorophenyl)-7-methyl-7H-purin-2-yl)-2-(1-cyclopropyl-1H-pyrazol-4-yl)-6-methylmorpholine]"
7,500 to 3000 nM,"CN(C)c1nc2nc(C3CCO[C@@H](c4cnn(C5CC5)c4)C3)nc(Oc3ccccc3)c2s1 (stereo partly drawn) [Compound I-210, 5-[(2R)-2-(1-cyclopropylpyrazol-4-yl)tetrahydropyran-4-yl]-N,N-dimethyl-7-phenoxy-thiazolo[4,5-d]pyrimidin-2-amine]"
8,≤ 50 nM,"CO[C@@H]1CCN(c2nc3nc(N4C[C@@H](C)O[C@@H](c5cnn(C6CC6)c5)C4)nc(-c4ccc(F)cc4F)c3s2)C1 [Compound I-221, (2S,6R)-2-(1-cyclopropyl-1H-pyrazol-4-yl)-4-(7-(2,4-difluorophenyl)-2-((R)-3-methoxypyrrolidin-1-yl)thiazolo[4,5-d]pyrimidin-5-yl)-6-methylmorpholine]"
9,≤ 50 nM,"CO[C@H]1CCN(c2nc3nc(N4C[C@@H](C)O[C@@H](c5cnn(C6CC6)c5)C4)nc(-c4ccc(F)cc4F)c3s2)C1 [Compound I-224, (2S,6R)-2-(1-cyclopropylpyrazol-4-yl)-4-[7-(2,4-difluorophenyl)-2-[(3S)-3-methoxypyrrolidin-1-yl]thiazolo[4,5-d]pyrimidin-5-yl]-6-methyl-morpholine]"
10,≤ 50 nM,"COCn1cc([C@H]2CN(c3nc(-c4ccc(F)cc4F)c4sc(N(C)C)nc4n3)C[C@@H](C)O2)cn1 [Compound I-230, 7-(2,4-difluorophenyl)-5-[(2S,6R)-2-[1-(methoxymethyl)pyrazol-4-yl]-6-methyl-morpholin-4-yl]-N,N-dimethyl-thiazolo[4,5-d]pyrimidin-2-amine]"
11,≤ 50 nM,"C[C@@H]1CN(c2nc(-c3ccc(F)cc3F)c3sc(N(C)C)nc3n2)C[C@H](c2cnn(C(F)F)c2)O1 [Compound I-235, 5-((2S,6R)-2-(1-(difluoromethyl)-1H-pyrazol-4-yl)-6-methylmorpholino)-7-(2,4-difluorophenyl)-N,N-dimethylthiazolo[4,5-d]pyrimidin-2-amine]"
12,≤ 50 nM,"C[C@@H]1CN(c2nc(-c3c(F)cc(F)cc3F)c3sc(N(C)C)nc3n2)C[C@H](c2cnn(C3CC3)c2)O1 [Compound I-240, 5-[(2S,6R)-2-(1-cyclopropylpyrazol-4-yl)-6-methyl-morpholin-4-yl]-N,N-dimethyl-7-(2,4,6-trifluorophenyl)thiazolo[4,5-d]pyrimidin-2-amine]"
13,≤ 50 nM,"CN(C)c1nc2nc(N3CCC(F)(F)C(c4cnn(C5CC5)c4)C3)nc(-c3ccc(F)cc3F)c2s1 (stereo not shown) [Compound I-245, 5-(3-(1-cyclopropyl-1H-pyrazol-4-yl)-4,4-difluoropiperidin-1-yl)-7-(2,4-difluorophenyl)-N,N-dimethylthiazolo[4,5-d]pyrimidin-2-amine]"
14,50 to 500 nM,"CS(=O)(=O)c1nc2nc([C@H]3CCO[C@@H](c4cnn(C5CC5)c4)C3)nc(-c3ccc(C(F)(F)F)cc3N3CCC3)c2s1 [Compound I-253, 7-[2-(azetidin-1-yl)-4-(trifluoromethyl)phenyl]-5-[(2R,4S)-2-(1-cyclopropylpyrazol-4-yl)tetrahydropyran-4-yl]-2-methylsulfonyl-thiazolo[4,5-d]pyrimidine]"
15,≤ 50 nM,"C[C@@H]1CN(c2nc(-c3ccc(C(F)(F)F)cc3F)c3sc(N(C)C)nc3n2)C[C@H](c2cnn(C3CC3)c2)O1 [Compound I-258, 5-[(2S,6R)-2-(1-cyclopropylpyrazol-4-yl)-6-methyl-morpholin-4-yl]-7-[2-fluoro-4-(trifluoromethyl)phenyl]-N,N-dimethyl-thiazolo[4,5-d]pyrimidin-2-amine]"
16,50 to 500 nM,"Cc1cc([C@H]2CN(c3nc(-c4ccc(C(F)(F)F)cc4F)c4sc(N(C)C)nc4n3)C[C@@H](C)O2)ccn1 [Compound I-263, 7-[2-fluoro-4-(trifluoromethyl)phenyl]-N,N-dimethyl-5-[(2R,6S)-2-methyl-6-(2-methyl-4-pyridyl)morpholin-4-yl]thiazolo[4,5-d]pyrimidin-2-amine]"
17,50 to 500 nM,"Cc1cc([C@H]2C[C@@H](c3nc(-c4ccc(F)cc4F)c4sc(N(C)C)nc4n3)CCO2)ccn1 [Compound I-268, 7-(2,4-difluorophenyl)-N,N-dimethyl-5-[(2R,4S)-2-(2-methyl-4-pyridyl)tetrahydropyran-4-yl]thiazolo[4,5-d]pyrimidin-2-amine]"
18,50 to 500 nM,"Cc1cc([C@H]2C[C@H](c3nc(-c4ccc(F)cc4F)c4sc(N(C)C)nc4n3)CCO2)ccn1 [Compound I-269, 7-(2,4-difluorophenyl)-N,N-dimethyl-5-[(2R,4R)-2-(2-methyl-4-pyridyl)tetrahydropyran-4-yl]thiazolo[4,5-d]pyrimidin-2-amine]"
19,≤ 50 nM,"C[C@@H]1CN(c2nc(-c3cc(F)c(F)cc3F)c3sc(N(C)C)nc3n2)C[C@H](c2cnn(C3CC3)c2)O1 [Compound I-273, 5-[(2S,6R)-2-(1-cyclopropylpyrazol-4-yl)-6-methyl-morpholin-4-yl]-N,N-dimethyl-7-(2,4,5-trifluorophenyl)thiazolo[4,5-d]pyrimidin-2-amine]"

# — patent US20260159528A1, “HETEROCYCLIC COMPOUNDS AS TRIGGERING RECEPTOR EXPRESSED ON MYELOID CELLS 2 AGONISTS AND METHODS OF USE” (Vigil Neuroscience, Inc., priority 2021, published 2026)
